Data as given in patent US20200046774A1, “COMPOSITION FOR PREVENTING OR TREATING BONE DISEASES WHICH HAS EXCELLENT BONE REGENERATION EFFECT” (KOREA UNIVERSITY RESEARCH AND BUSINESS FOUNDATION, priority 2017, published 2020).

Key:
[1] = test system: TDF cell line of Example 3; assay: Evaluation of apoptosis by gancyclovir treatment (HSV-tk kill switch); assay type: cell-based; settings: 0, 50 and 500 μg/ml, 72 hours to 124 hours; depending on concentration and time; FIGS. 12 and 13
Method: TDF cell line of Example 3, a cell line of Example 3 was treated with gancyclovir in concentrations of 0 μg/ml, 50 μg/ml and 500 μg/ml, respectively, and the number of cells was observed and analyzed for a period of 72 hours to 124 hours, as shown in FIGS. 12 and 13.

[2] = test system: HGPRT knockout cell line of Example 14; settings: after 9 days of 6-TG treatment, in comparison to the TDF cell line of Example 3; FIG. 20
[3] = test system: alkaline phosphatase (ALP); assay: ALP activity (early osteogenic induction ability), OIM or GM culture; settings: 1 ng/ml, 2 ng/ml and 5 ng/ml of BMP-2, 7 days after induction of osteogenesis, versus control not treated with BMP-2; FIG. 4
Method: After 3 days and 7 days of the culturing, samples were washed twice with a PBS solution, and dissolved in a cell lysis buffer to which 0.1% Triton X-10 was added.
Lysed cells were centrifuged at 4° C. and 13000 rpm for 30 minutes, and then a supernatant was recovered and quantitated by a Bradford assay. The ALP activity was measured at 405 nm for the same amount of proteins using an ALP kit (AnaSpec), and the results are shown in FIG. 3.

Compound: Nc1nc(O)c2ncn(COC(CO)CO)c2n1 [ganciclovir]
- cell growth / number of cells under gancyclovir [1]: cell growth is inhibited

Compound: Nc1nc2[nH]cnc2c(=S)[nH]1 [Example 6-TG, 6-tioguanine]
- cell survival under 6-TG treatment [2]: more cells survived

Compound: BMP-2
- ALP activity of normal TDF cell line with BMP-2 injected from the outside [3]: statistically significant ALP activity was not observed
